Where two headings read alike, the source gives them in different places.
Columns and labels:
EZH2/SUZ/EED = target: T1, EZH2/SUZ/EED (Homo sapiens, UniProt O75530+Q15022+Q15910); experiment: Inhibitory effect on EZH2 by the MTase-Glo method (Test Example 1); assay type: biochemical; conditions: EZH2/SUZ/EED 6.25 nM, H3 peptide 10 μM, SAM 3 μM, 30° C. 3 h, read-out: Test Example 1 WT EZH2 IC50
T1 construct: purchased BPS 51003
In short: (§1)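 EZH2/SUZ/EED (6.25 nM) or EZH1/SUZ/EED (25 nM) pre-incubated 15 min with compound in pH 7.6 Bicine buffer, 0.5% DMSO. Biotinylated H3(21-44) peptide 10 μM plus SAM 3 μM reacted 3 h at 30 °C; MTase-Glo luminescence normalized to controls, IC50 from variable-slope fit.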

[1] = test system: H3K27Me3 methylation in Karpas-422 cells; experiment: H3K27Me3 cell method, inhibition of H3K27Me3 methylation (Test Example 2); assay type: cell-based, human
Method: Karpas-422 (Nanjing Kebai, CBP60629) cells were seeded in a 96-well plate (Corning, 3894) at 15,000 cells per well in culture medium (80% 1640 (Hyclone, SH30809.01)+20% FBS (Corning, 35-081-CV)), and then added with different concentrations of compounds for treatment. The cell growth group without adding compounds is used as a positive control (maximum signal control), and the medium is used as a negative control (minimum signal control), while ensuring that in each reaction well, the final concentration of DMSO was 0.2%. Compounds and cells were incubated for 3 days in a cell culture incubator (37° C., 5% CO2). The 96-well plate was taken out from the cell culture incubator and equilibrated to room temperature, and 25 ul of cell suspension was taken out into a 384-well plate. The CCK8 (Beiyuntian, C0040) detection reagent was added, incubated at 37° C. for 1 h, and […] was detected. The rest of the cells followed the procedure of the kit EPIgeneous H3K27Me3 cellular kit (Cisbio, 62KC3PAE) to carry out experiment, read HTRF signal with BMG PHERAStar. […] By GraphPad Prism 6 with log(inhibitor)vs.response-Variable slope model simulation, the IC50 of the compound on cell activity inhibition was calculated. The fitting equation is: Y=Bottom+(Top−Bottom)/(1+10^((Log IC50−X)*HillSlope)), wherein Y represents the inhibition rate, and X represents the known concentration of the compound after Log.

Karpas-422 cells = experiment: Anti-proliferation by Cell Titer-Glo method (Test Example 3); assay type: cell-based; conditions: Homo sapiens
Method: Karpas-422 (Nanjing Kebai, CBP60629) cells were seeded in a 96-well plate (Corning, 3894) at 1,000 cells per well in growth medium (80% 1640 (Hyclone, SH30809.01)+20% FBS (Corning, 35-081-CV)), in a total of 100 μL, and then was added with 25 μL of 5-fold different concentrations of compounds diluted in growth medium. The cell growth group without compound addition was used as a positive control (maximum signal control), and the medium was used as a negative control (minimum signal control), while ensuring that the final contration of DMSO in each reaction well was 0.2%. Then the 96-well cell plate was placed in a cell culture incubator (37° C., 5% CO2) and incubated for 3 days. On the fourth day, the cell culture plate was taken out of the incubator, using a row gun to gently blow the cells up and down to mix, removing 62.5 μL of the cell suspension, adding 50 μL of growth medium and 12.5 μL of compounds of 5 times different concentrations, and then putting them in the cell incubator to incubate for 4 days. On the eighth day, the same method was used as the fourth day to treat the cells, then incubating in the cell culture incubator for 3 days. On the eleventh day, the Cell-Titer Glo (Promega, G7573) was used to detect cell viability, and a microplate reader was used to detect the signal value of luminescence.
The inhibition rate of different concentrations of compounds on cells was calculated as inhibition rate=[1−(compound signal value−negative control signal value)/(positive control signal value-negative control signal value)][…]. The IC50 of the compound on cell activity inhibition was calculated by GraphPad Prism 6 with log(inhibitor) vs. response-Variable slope model fitting. The fitting equation is: Y=Bottom+(Top−Bottom)/(1+10^((Log IC50−X)*Hill Slope)), wherein Y represents the inhibition rate, and X represents the known concentration of the compound after Log.

EZH1/SUZ/EED = target: T2, EZH1/SUZ/EED (Homo sapiens, UniProt O75530+Q15022+Q92800); experiment: Inhibitory effect on EZH1 by the MTase-Glo method (Test Example 1); assay type: biochemical; conditions: EZH1/SUZ/EED 25 nM, H3 peptide 10 μM, SAM 3 μM, 30° C. 3 h, read-out: Test Example 1 WT EZH1 IC50
T2 construct: purchased BPS 51006
In short: as §1

[2] = Karpas-422 cells, Cell-Titer Glo on the eleventh day, read-out: Test Example 3 Karpas-422 cell anti-proliferation IC50
[3] = Homo sapiens, KARPAS-422, 72 h, Karpas-422 cells, 3 days incubation, HTRF signal, read-out: Test Example 2 H3K27Me3 inhibition (Karpas-422) IC50
[4] = Homo sapiens, KARPAS-422, 72 h, read-out: Test Example 2 H3K27Me3 inhibition (Karpas-422) IC50(nM)
[5] = KARPAS-422, read-out: Test Example 3 Karpas-422 cell anti-proliferation IC50(nM)

T1 sequence (Q15910 2-746 limits assumed): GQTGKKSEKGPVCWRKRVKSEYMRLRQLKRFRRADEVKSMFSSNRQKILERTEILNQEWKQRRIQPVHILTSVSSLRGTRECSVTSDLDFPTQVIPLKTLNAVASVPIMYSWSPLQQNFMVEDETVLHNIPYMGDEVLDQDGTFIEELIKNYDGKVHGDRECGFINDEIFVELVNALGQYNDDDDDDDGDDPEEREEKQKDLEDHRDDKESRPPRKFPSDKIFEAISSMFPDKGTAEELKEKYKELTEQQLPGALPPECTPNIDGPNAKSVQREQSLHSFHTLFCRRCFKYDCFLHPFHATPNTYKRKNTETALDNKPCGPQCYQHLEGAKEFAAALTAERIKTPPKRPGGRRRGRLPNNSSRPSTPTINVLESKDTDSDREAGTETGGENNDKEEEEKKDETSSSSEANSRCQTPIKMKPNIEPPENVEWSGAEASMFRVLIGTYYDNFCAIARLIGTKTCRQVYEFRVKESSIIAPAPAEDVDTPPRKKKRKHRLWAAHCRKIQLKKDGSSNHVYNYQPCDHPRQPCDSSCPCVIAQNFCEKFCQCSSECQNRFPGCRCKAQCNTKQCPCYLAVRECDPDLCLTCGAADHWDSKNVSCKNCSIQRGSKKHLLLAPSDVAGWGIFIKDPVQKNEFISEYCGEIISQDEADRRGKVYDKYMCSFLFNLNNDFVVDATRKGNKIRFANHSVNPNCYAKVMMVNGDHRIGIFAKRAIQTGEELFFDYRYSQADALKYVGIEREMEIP
T1 sequence (Q15022 2-739 partner limits assumed): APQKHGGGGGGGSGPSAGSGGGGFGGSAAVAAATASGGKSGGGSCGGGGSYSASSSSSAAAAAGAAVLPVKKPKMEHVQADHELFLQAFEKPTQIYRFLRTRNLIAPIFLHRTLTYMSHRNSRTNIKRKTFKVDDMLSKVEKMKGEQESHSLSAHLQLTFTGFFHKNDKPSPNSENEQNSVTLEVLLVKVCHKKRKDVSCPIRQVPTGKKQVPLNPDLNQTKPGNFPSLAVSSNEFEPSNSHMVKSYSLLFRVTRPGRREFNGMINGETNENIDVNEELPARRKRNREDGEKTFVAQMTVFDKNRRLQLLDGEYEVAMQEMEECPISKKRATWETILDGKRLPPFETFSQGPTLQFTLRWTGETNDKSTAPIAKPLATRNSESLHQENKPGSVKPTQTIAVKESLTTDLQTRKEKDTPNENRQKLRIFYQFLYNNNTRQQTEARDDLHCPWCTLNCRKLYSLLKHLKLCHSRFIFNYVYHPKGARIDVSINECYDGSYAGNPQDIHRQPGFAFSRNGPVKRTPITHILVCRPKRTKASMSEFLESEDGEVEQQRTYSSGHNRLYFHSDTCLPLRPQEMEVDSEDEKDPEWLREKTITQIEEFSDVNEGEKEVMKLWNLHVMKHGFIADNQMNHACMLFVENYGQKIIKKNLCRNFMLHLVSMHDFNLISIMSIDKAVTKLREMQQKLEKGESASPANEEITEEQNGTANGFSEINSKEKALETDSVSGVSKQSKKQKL
T1 sequence (O75530 2-441 partner limits assumed): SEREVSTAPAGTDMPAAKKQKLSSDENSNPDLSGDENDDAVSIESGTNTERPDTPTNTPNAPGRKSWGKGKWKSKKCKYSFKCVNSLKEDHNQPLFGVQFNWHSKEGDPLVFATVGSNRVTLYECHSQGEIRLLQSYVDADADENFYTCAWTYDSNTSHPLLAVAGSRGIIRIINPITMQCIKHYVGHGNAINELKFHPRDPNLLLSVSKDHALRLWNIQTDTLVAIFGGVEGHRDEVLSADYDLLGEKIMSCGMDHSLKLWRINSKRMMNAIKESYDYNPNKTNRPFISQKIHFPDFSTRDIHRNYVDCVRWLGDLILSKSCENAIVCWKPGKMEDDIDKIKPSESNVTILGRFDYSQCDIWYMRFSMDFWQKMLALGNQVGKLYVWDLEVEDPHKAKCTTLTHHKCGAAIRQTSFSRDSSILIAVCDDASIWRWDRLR
T2 sequence (Q92800 2-747 limits assumed): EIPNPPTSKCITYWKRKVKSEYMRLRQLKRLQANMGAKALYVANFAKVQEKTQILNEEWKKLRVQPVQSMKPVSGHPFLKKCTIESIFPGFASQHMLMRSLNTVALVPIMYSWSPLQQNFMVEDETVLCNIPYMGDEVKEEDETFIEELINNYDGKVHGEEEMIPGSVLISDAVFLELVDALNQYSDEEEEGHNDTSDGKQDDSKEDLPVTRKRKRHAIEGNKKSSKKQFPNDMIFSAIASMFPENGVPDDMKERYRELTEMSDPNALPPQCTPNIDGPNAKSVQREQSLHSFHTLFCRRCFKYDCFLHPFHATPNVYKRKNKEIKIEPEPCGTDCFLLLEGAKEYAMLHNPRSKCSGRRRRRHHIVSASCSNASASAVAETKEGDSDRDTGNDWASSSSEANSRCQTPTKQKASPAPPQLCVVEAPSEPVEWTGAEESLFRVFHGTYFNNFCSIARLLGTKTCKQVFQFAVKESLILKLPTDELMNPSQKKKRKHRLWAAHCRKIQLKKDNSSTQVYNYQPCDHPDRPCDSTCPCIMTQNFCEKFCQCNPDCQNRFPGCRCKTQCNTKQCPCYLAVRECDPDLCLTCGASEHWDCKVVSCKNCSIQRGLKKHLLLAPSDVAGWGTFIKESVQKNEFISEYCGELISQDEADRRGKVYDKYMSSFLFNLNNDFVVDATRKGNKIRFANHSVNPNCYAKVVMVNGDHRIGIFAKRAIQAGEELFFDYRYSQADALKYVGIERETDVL
T2 sequence (Q15022 2-739 partner limits assumed): as the sequence (Q15022 2-739 partner limits assumed) above
T2 sequence (O75530 2-441 partner limits assumed): as the sequence (O75530 2-441 partner limits assumed) above

Compound | IC50 (EZH2/SUZ/EED) | IC50 ([1]; Karpas-422 cells, 3 days incubation, HTRF signal, read-out: Test Example 2 H3K27Me3 inhibition (Karpas-422) IC50) | IC50 (Karpas-422 cells; [2]) | IC50 (EZH1/SUZ/EED) | IC50 [1, 3] | IC50 [1, 4] | IC50 (Karpas-422 cells; [5])
COC1CN(C2CCC(C3COc4c(Cl)cc(C(=O)NCc5c(C)cc(C)[nH]c5=O)c(C)c4O3)CC2)C1 (single isomer, unassigned) [Compound 61] | 8.8 nM | 73.8 nM | 93.8 nM | 162 nM |  |  | 
Cc1cc(C)c(CNC(=O)c2cc(Cl)c3c(c2C)OC(C2CCC(N(C)C)CC2)CO3)c(=O)[nH]1 (centres unmarked) [Compound 2] | 3.9 nM |  | 42.4 nM | 88.5 nM | 31.2 nM |  | 
CSc1cc(C)[nH]c(=O)c1CNC(=O)c1cc(Cl)c2c(c1C)OC(C1CCC(N(C)C)CC1)CO2 (centres unmarked) [Compound 3] | 3.3 nM |  | 7.6 nM | 4.4 nM | 2.1 nM |  | 
COc1cc(C)[nH]c(=O)c1CNC(=O)c1cc(Cl)c2c(c1C)OC(C1CCC(N(C)C)CC1)CO2 (centres unmarked) [Compound 5] | 2.3 nM |  | 23.2 nM | 26 nM | 7.9 nM |  | 
CSc1cc(C)[nH]c(=O)c1CNC(=O)c1cc(Cl)c2c(c1C)O[C@@H]([C@H]1CC[C@@H](N(C)C)CC1)CO2 [Compound 6] | 2.5 nM |  |  | 4 nM |  | 0.59 nM | 1.3 nM
COC1CN([C@H]2CC[C@@H]([C@H]3COc4c(Cl)cc(C(=O)NCc5c(SC)cc(C)[nH]c5=O)c(C)c4O3)CC2)C1 [Compound 8] | 5.6 nM |  | 1.8 nM | 6.2 nM | 2.4 nM |  | 
CSc1cc(C)[nH]c(=O)c1CNC(=O)c1cc(Cl)c2c(c1C)O[C@@H]([C@H]1CC[C@@H](N3CC(OC4CC4)C3)CC1)CO2 [Compound 11] | 8.1 nM |  | 1.5 nM | 4.8 nM | 1.7 nM |  | 
CSc1cc(C)[nH]c(=O)c1CNC(=O)c1cc(Cl)c2c(c1C)O[C@@H]([C@H]1CC[C@@H](N3CC4COCC4C3)CC1)CO2 (some centres unmarked) [Compound 14] | 3.7 nM |  | 3.3 nM | 3.7 nM | 6.8 nM |  | 
CSc1cc(C)[nH]c(=O)c1CNC(=O)c1cc(Cl)c2c(c1C)OC(C1CCN(CC3CC3)CC1)CO2 (centres unmarked) [Compound 16] | 5.2 nM |  | 19.8 nM | 29.6 nM | 85.9 nM |  | 
CSc1cc(C)[nH]c(=O)c1CNC(=O)c1cc(Cl)c2c(c1C)O[C@@H]([C@H]1CC[C@@H](N3CCN(C)CC3)CC1)CO2 [Compound 18] | 3.5 nM |  | 17.7 nM | 7.4 nM | 22.8 nM |  | 
CSc1cc(C)[nH]c(=O)c1CNC(=O)c1cc(Cl)c2c(c1C)O[C@@H]([C@H]1CC[C@H](N3CCN(C)CC3)CC1)CO2 [Compound 19] | 3.4 nM |  | 89.5 nM | 26.3 nM | 284 nM |  | 
[2H]C([2H])([2H])OC1CN([C@H]2CC[C@@H]([C@H]3COc4c(Cl)cc(C(=O)NCc5c(SC)cc(C)[nH]c5=O)c(C)c4O3)CC2)C1 [Compound 20] | 3.1 nM |  | 1.6 nM | 3.3 nM | 3.2 nM |  | 
CSc1cc(C)[nH]c(=O)c1CNC(=O)c1cc(Cl)c2c(c1C)O[C@@H]([C@H]1CC[C@@H](N3CCC3)CC1)CO2 [Compound 32] | 5.1 nM |  |  | 5.7 nM |  | 1.7 nM | 2 nM
CSc1cc(C)[nH]c(=O)c1CNC(=O)c1cc(Cl)c2c(c1C)O[C@@H]([C@H]1CC[C@@H](N3CC(CF)C3)CC1)CO2 [Compound 34] |  |  | 5.8 nM |  | 6.2 nM |  | 
Cc1cc(C)c(CNC(=O)c2cc(Cl)c3c(c2C)O[C@@H](C2CCC(N(C)C)CC2)CO3)c(=O)[nH]1 (some centres unmarked) [Compound 53] | 3 nM |  | 14.1 nM | 26.8 nM | 5 nM |  | 
COc1cc(C)[nH]c(=O)c1CNC(=O)c1cc(Cl)c2c(c1C)O[C@@H]([C@H]1CC[C@@H](N3CC[C@H](OC)C3)CC1)CO2 [Compound 119] |  |  | 12.9 nM |  |  |  | 

— patent US20260184697A1, “EZH1/2 INHIBITOR, PREPARATION THEREOF, AND USE THEREOF IN ANTI-TUMOR THERAPY” (JIANGSU TASLY DIYI PHARMACEUTICAL CO., LTD., priority 2022, published 2026)
